# Measured values published in publication PMC6150295, “Synthesis and Biological Evaluation of 2H-Indazole Derivatives: Towards Antimicrobial and Anti-Inflammatory Dual Agents” (Molecules : A Journal of Synthetic Chemistry and Natural …, 2017).
# Tested on: not listed separately
# Test: Cytotoxicity MTT assay
# Type: cell-based, human
# Settings: human, 10 µM, 48 h exposure, read-out: % Viability (10 µM) HaCaT Cells
# Method: Biological assays on HaCaT and HeLa cell lines were conducted to gain insight into the cytotoxic effects of these derivatives on human cells, as compared with the effects observed on protozoa. Cellular viability was determined by MTT (3-(4,5-dimethylthiazol-2-yl)-2,5-diphenyltetrazolium bromide) assay. Compounds 18 and 23 were chosen considering their antiprotozoal and anticandidal effect, in addition to their COX-2 inhibitory activity. Additionally, compound 16 was considered as an unsubstituted reference.
# HeLa (human cervical carcinoma) and HaCaT (immortalized human keratinocytes) cells were grown in DMEM (Invitrogen Corporation, Carlsbad, CA, USA) supplemented with 10% FBS (BioWest, Riverside, MO, USA), and maintained in standard culture conditions (37 °C, 95% humidity, and 5% CO2). Cells were allowed to grow to a density of 80% and then were harvested using sterile PBS/EDTA (pH 7.4) before starting every experiment. Cells were seeded in 96-well plates (7000 cells/well in 200 µL of DMEM). After 24 h the cells were exposed to test compounds dissolved in DMSO (J.T. Baker, Phillipsburg, NJ, USA) at different concentrations and diluted in 50 µL of DMEM, to reach 250 µL in the well. The exposure time was 48 h, and then viability was determined by MTT assay. The absorbance of formazan was determined for each well and its viability was related to the vehicle (100%). The IC50 was calculated from dose-response curve by non-linear fit using OriginPro 7.0 software (RockWare, Golden, CO, USA).
row,SMILES,"viability at 48 h, 10 µM [%]"
1,"COC(=O)c1ccc(-n2nc3ccccc3c2-c2ccccc2)cc1 [Compound 18, Methyl 4-(3-phenyl-2H-indazol-2-yl) benzoate]",96.2 ± 4.14
2,"COC(=O)c1ccc(-c2c3ccccc3nn2-c2ccccc2)cc1 [Compound 23, Methyl 4-(2-phenyl-2H-indazol-3-yl) benzoate]",97.8 ± 5.19

# Same assay, conditions: human, 10 µM, 48 h exposure, read-out: % Viability (10 µM) HeLa Cells
row,SMILES,"viability at 48 h, 10 µM [%]"
1,"COC(=O)c1ccc(-n2nc3ccccc3c2-c2ccccc2)cc1 [Compound 18, Methyl 4-(3-phenyl-2H-indazol-2-yl) benzoate]",94.1 ± 3.31
2,"COC(=O)c1ccc(-c2c3ccccc3nn2-c2ccccc2)cc1 [Compound 23, Methyl 4-(2-phenyl-2H-indazol-3-yl) benzoate]",93.7 ± 7.48

# Tested on: Candida glabrata
# Test: Disk diffusion susceptibility test
# Type: cell-based
# Settings: 5 mg per disc, 37 °C, 24 h
row,SMILES,Inhibition (positive / none) C. glabrata
1,"COC(=O)c1ccc(-n2nc3ccccc3c2-c2ccccc2)cc1 [Compound 18, Methyl 4-(3-phenyl-2H-indazol-2-yl) benzoate]",+
2,"COC(=O)c1ccc(-c2c3ccccc3nn2-c2ccccc2)cc1 [Compound 23, Methyl 4-(2-phenyl-2H-indazol-3-yl) benzoate]",+

# Same assay, conditions: Nakaseomyces glabratus, read-out: Zone of inhibition at 5 mg per disc (mm) C. glabrata
row,SMILES,zone of inhibition at 5000 µg/disc [mm]
1,"COC(=O)c1ccc(-n2nc3ccccc3c2-c2ccccc2)cc1 [Compound 18, Methyl 4-(3-phenyl-2H-indazol-2-yl) benzoate]",3
2,"COC(=O)c1ccc(-c2c3ccccc3nn2-c2ccccc2)cc1 [Compound 23, Methyl 4-(2-phenyl-2H-indazol-3-yl) benzoate]",4

# Tested on: Giardia intestinalis isolate IMSS:0981:1
# Test: In vitro antiprotozoal assay (trophozoite subculture method)
# Type: cell-based
# Settings: Giardia duodenalis; trophozoites, 48 h with compound then 48 h subculture without drug; read-out: IC50 (µM) G. intestinalis
# Method: (§1) The in vitro antiprotozoal assays against E. histolytica, G. intestinalis, and T. vaginalis of the 2-phenyl-2H-indazole and 2,3-diphenyl-2H-indazole derivatives were carried out following the method previously described. Metronidazole (MTZ) and albendazole (ABZ) were used as reference drugs. […] Similarly, compound 7, having a phenyl at position 2, has good activity against the three protozoa, ranking third in activity for T. vaginalis and forth against G. intestinalis and E. histolytica. […] These derivatives had groups H, COOCH3, Cl, and SO2CH3 at positions 2 and 3, substituents that induced the best response in 2-phenyl-2H-indazole derivatives. In addition, carboxylic acids 20 and 25 were of interest for comparative purposes with ester derivatives.
# (§2) Trichomonas vaginalis strain GT3, Giardia intestinalis isolate IMSS:0981:1, and Entamoeba histolytica strain HM1-IMSS were used. Trophozoites of G. intestinalis were maintained in a TYI-S-33 medium supplemented with 10% calf serum and bovine bile. E. histolytica and T. vaginalis trophozoites were maintained in TYI-S-33 medium supplemented with 10% bovine serum. Briefly, 5 × 10^4 trophozoites of G. intestinalis or T. vaginalis, or 6 × 10^3 trophozoites of E. histolytica were incubated for 48 h at 37 °C with different concentrations of the compound to be tested, each added as solutions in DMSO. As a negative control, parasite cultures received an equivalent amount of DMSO only, while albendazole and metronidazole were included as positive controls. At the end of the treatment period, the cells were washed and subcultured for another 48 h in a fresh medium to which no drug was added. […] Experiments were carried out in triplicate and repeated at least twice.
row,SMILES,IC50 [µM]
1,"COC(=O)c1ccc(-n2nc3ccccc3c2-c2ccccc2)cc1 [Compound 18, Methyl 4-(3-phenyl-2H-indazol-2-yl) benzoate]",0.0959 ± 0.0022
2,"COC(=O)c1ccc(-c2c3ccccc3nn2-c2ccccc2)cc1 [Compound 23, Methyl 4-(2-phenyl-2H-indazol-3-yl) benzoate]",0.119 ± 0.0086

# Same assay, conditions: ratio of IC50 values
row,SMILES,times more active than metronidazole against G. intestinalis [times]
1,"COC(=O)c1ccc(-n2nc3ccccc3c2-c2ccccc2)cc1 [Compound 18, Methyl 4-(3-phenyl-2H-indazol-2-yl) benzoate]",12.8

# Tested on: Entamoeba histolytica strain HM1-IMSS
# Test: as above
# Type: cell-based
# Settings: Entamoeba histolytica; trophozoites, 48 h with compound then 48 h subculture without drug; read-out: IC50 (µM) E. histolytica
# Method: as §1, §2
row,SMILES,IC50 [µM]
1,"COC(=O)c1ccc(-n2nc3ccccc3c2-c2ccccc2)cc1 [Compound 18, Methyl 4-(3-phenyl-2H-indazol-2-yl) benzoate]",0.0502 ± 0.0022
2,"COC(=O)c1ccc(-c2c3ccccc3nn2-c2ccccc2)cc1 [Compound 23, Methyl 4-(2-phenyl-2H-indazol-3-yl) benzoate]",0.0731 ± 0.0086

# Tested on: Trichomonas vaginalis strain GT3
# Test: as above
# Type: cell-based
# Settings: Trichomonas vaginalis, GT3; trophozoites, 48 h with compound then 48 h subculture without drug; read-out: IC50 (µM) T. vaginalis
# Method: as §1, §2
row,SMILES,IC50 [µM]
1,"COC(=O)c1ccc(-n2nc3ccccc3c2-c2ccccc2)cc1 [Compound 18, Methyl 4-(3-phenyl-2H-indazol-2-yl) benzoate]",0.102 ± 0.0151
2,"COC(=O)c1ccc(-c2c3ccccc3nn2-c2ccccc2)cc1 [Compound 23, Methyl 4-(2-phenyl-2H-indazol-3-yl) benzoate]",0.143 ± 0.0043

# Tested on: Candida albicans
# Test: Disk diffusion susceptibility test
# Type: cell-based
# Settings: 5 mg per disc, 37 °C, 24 h
row,SMILES,Inhibition (positive / none) C. albicans
1,"COC(=O)c1ccc(-n2nc3ccccc3c2-c2ccccc2)cc1 [Compound 18, Methyl 4-(3-phenyl-2H-indazol-2-yl) benzoate]",+
2,"COC(=O)c1ccc(-c2c3ccccc3nn2-c2ccccc2)cc1 [Compound 23, Methyl 4-(2-phenyl-2H-indazol-3-yl) benzoate]",+

# Same assay, conditions: Candida albicans, read-out: Zone of inhibition at 5 mg per disc (mm) C. albicans
row,SMILES,zone of inhibition at 5000 µg/disc [mm]
1,"COC(=O)c1ccc(-n2nc3ccccc3c2-c2ccccc2)cc1 [Compound 18, Methyl 4-(3-phenyl-2H-indazol-2-yl) benzoate]",10
2,"COC(=O)c1ccc(-c2c3ccccc3nn2-c2ccccc2)cc1 [Compound 23, Methyl 4-(2-phenyl-2H-indazol-3-yl) benzoate]",13

# Tested on: not given
# Test: not given
# Settings: not given
row,SMILES,melting point [°C]
1,"COC(=O)c1ccc(-n2nc3ccccc3c2-c2ccccc2)cc1 [Compound 18, Methyl 4-(3-phenyl-2H-indazol-2-yl) benzoate]",152.4 to 154.9
2,"COC(=O)c1ccc(-c2c3ccccc3nn2-c2ccccc2)cc1 [Compound 23, Methyl 4-(2-phenyl-2H-indazol-3-yl) benzoate]",164.5 to 166.3

# Tested on: Salmonella enterica serovar Typhi
# Test: Disk diffusion susceptibility test
# Type: cell-based
# Settings: 5 mg per disc, 37 °C, 24 h
row,SMILES,Inhibition (positive / none) S. Typhi
1,"COC(=O)c1ccc(-n2nc3ccccc3c2-c2ccccc2)cc1 [Compound 18, Methyl 4-(3-phenyl-2H-indazol-2-yl) benzoate]",-
2,"COC(=O)c1ccc(-c2c3ccccc3nn2-c2ccccc2)cc1 [Compound 23, Methyl 4-(2-phenyl-2H-indazol-3-yl) benzoate]",-

# Target: T1, human recombinant cyclooxygenase-2 (Homo sapiens, UniProt P35354)
# T1 construct: purchased Cayman Chemical 560131
# T1 sequence (P35354 18-604): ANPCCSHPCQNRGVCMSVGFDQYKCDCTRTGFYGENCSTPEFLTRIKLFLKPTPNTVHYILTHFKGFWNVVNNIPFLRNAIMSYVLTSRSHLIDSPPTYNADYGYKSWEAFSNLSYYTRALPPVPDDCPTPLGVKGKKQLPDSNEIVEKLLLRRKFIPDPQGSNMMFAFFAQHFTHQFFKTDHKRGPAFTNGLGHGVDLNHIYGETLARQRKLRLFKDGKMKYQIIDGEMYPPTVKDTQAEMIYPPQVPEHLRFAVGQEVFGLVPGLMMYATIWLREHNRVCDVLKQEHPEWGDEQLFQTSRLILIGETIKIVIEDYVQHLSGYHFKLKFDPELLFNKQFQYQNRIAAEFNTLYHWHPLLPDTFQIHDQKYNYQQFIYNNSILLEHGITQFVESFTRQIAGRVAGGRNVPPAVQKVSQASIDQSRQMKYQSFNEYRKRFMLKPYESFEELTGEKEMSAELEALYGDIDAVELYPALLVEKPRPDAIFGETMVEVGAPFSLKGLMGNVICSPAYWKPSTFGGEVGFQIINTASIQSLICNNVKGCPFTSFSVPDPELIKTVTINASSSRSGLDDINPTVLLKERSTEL
# Test: COX inhibitor screening assay (Cayman kit)
# Type: biochemical
# Settings: tested at 10 µM
# Method: Additionally, molecular docking studies using AutoDock Vina software (TSRI, La Jolla, CA, USA) were performed to aid in the interpretation of the experimental results. […] Nevertheless, these compounds represent an interesting starting point towards the design of new antiparasitic compounds with an additional COX-2 inhibitory property.
# Assays were carried out by duplicate following the instructions provided by the manufacturer.
row,SMILES,inhibition at 10 µM [%]
1,"COC(=O)c1ccc(-n2nc3ccccc3c2-c2ccccc2)cc1 [Compound 18, Methyl 4-(3-phenyl-2H-indazol-2-yl) benzoate]",50 ± 9.49
2,"COC(=O)c1ccc(-c2c3ccccc3nn2-c2ccccc2)cc1 [Compound 23, Methyl 4-(2-phenyl-2H-indazol-3-yl) benzoate]",36.4 ± 1.7

# Tested on: C. albicans
# Test: Minimum inhibitory concentration (antimycotic effect)
# Type: cell-based
# Settings: Candida albicans
row,SMILES,MIC [mM]
1,"COC(=O)c1ccc(-n2nc3ccccc3c2-c2ccccc2)cc1 [Compound 18, Methyl 4-(3-phenyl-2H-indazol-2-yl) benzoate]",3.81
2,"COC(=O)c1ccc(-c2c3ccccc3nn2-c2ccccc2)cc1 [Compound 23, Methyl 4-(2-phenyl-2H-indazol-3-yl) benzoate]",3.81

# Tested on: Escherichia coli strain EDL933 (EHEC)
# Test: Disk diffusion susceptibility test
# Type: cell-based
# Settings: 5 mg per disc, 37 °C, 24 h
row,SMILES,Inhibition (positive / none) E. coli 933
1,"COC(=O)c1ccc(-n2nc3ccccc3c2-c2ccccc2)cc1 [Compound 18, Methyl 4-(3-phenyl-2H-indazol-2-yl) benzoate]",-
2,"COC(=O)c1ccc(-c2c3ccccc3nn2-c2ccccc2)cc1 [Compound 23, Methyl 4-(2-phenyl-2H-indazol-3-yl) benzoate]",-

# Tested on: Escherichia coli strain 042 (EAEC)
# Test: Disk diffusion susceptibility test
# Type: cell-based
# Settings: 5 mg per disc, 37 °C, 24 h
row,SMILES,Inhibition (positive / none) E. coli 042
1,"COC(=O)c1ccc(-n2nc3ccccc3c2-c2ccccc2)cc1 [Compound 18, Methyl 4-(3-phenyl-2H-indazol-2-yl) benzoate]",-
2,"COC(=O)c1ccc(-c2c3ccccc3nn2-c2ccccc2)cc1 [Compound 23, Methyl 4-(2-phenyl-2H-indazol-3-yl) benzoate]",-

# Tested on: C. glabrata
# Test: Minimum inhibitory concentration (antimycotic effect)
# Type: cell-based, Candida glabrata
# Settings: Nakaseomyces glabratus
row,SMILES,MIC [mM]
1,"COC(=O)c1ccc(-n2nc3ccccc3c2-c2ccccc2)cc1 [Compound 18, Methyl 4-(3-phenyl-2H-indazol-2-yl) benzoate]",15.2
2,"COC(=O)c1ccc(-c2c3ccccc3nn2-c2ccccc2)cc1 [Compound 23, Methyl 4-(2-phenyl-2H-indazol-3-yl) benzoate]",15.2
